Active and inactive are the calls of the source. The rule behind the calls is not given here.

This note sets out measurements from ChEMBL document CHEMBL5131411, “Evaluation of amentoflavone metabolites on PARP-1 inhibition and the potentiation on anti-proliferative effects of carboplatin in A549 cells” (Bioorg Med Chem Lett, 2022).

The target of experiment [1] is Poly [ADP-ribose] polymerase 1 (Homo sapiens, UniProt P09874). As to the kind of experiment: Inhibition of PARP1 (unknown origin).
Experiment [2] concerns A549. As to the kind of experiment: Potentiation of carboplatin induced antiproliferative activity against human A549 cells assessed as increase in apoptotic cells at 0.1 to 10 uM by Hoechst staining based assay. Format: functional, cell-based. The settings on record: dose 0.1-10 µM.
Experiment [3] deals with A549. As to the kind of experiment: Potentiation of carboplatin induced antiproliferative activity against human A549 cells assessed as increase in apoptotic cells at 0.1 to 10 uM by Annexin V-PI double staining based flow cytometric analysis. Format: functional, cell-based. The settings on record: dose 0.1-10 µM.
The subject of experiment [4] is A549. The experiment in a line: Potentiation of carboplatin induced antiproliferative activity against human A549 cells assessed as reduction in cell viability at 0.1 to 10 uM by MTT assay. The settings on record: dose 0.1-10 µM. Format: functional, cell-based. In general terms: Formazan colour is commonly taken as a measure of viable cells.
In experiment [5] the test system is A549. The experiment in a line: Potentiation of carboplatin induced antiproliferative activity against human A549 cells assessed as increase in apoptotic cells at 10 uM by Hoechst staining based assay. The experiment is classed as functional, cell-based.
Experiment [6] concerns A549. The experiment in a line: Potentiation of carboplatin induced antiproliferative activity against human A549 cells assessed as increase in apoptotic cells at 10 uM by Annexin V-PI double staining based flow cytometric analysis. Format: functional, cell-based.
The subject of experiment [7] is A549. As to the kind of experiment: Potentiation of carboplatin induced antiproliferative activity against human A549 cells assessed as reduction in cell viability at 10 uM by MTT assay. Format: functional, cell-based.

Chain of Poly [ADP-ribose] polymerase 1 (P09874 whole entry): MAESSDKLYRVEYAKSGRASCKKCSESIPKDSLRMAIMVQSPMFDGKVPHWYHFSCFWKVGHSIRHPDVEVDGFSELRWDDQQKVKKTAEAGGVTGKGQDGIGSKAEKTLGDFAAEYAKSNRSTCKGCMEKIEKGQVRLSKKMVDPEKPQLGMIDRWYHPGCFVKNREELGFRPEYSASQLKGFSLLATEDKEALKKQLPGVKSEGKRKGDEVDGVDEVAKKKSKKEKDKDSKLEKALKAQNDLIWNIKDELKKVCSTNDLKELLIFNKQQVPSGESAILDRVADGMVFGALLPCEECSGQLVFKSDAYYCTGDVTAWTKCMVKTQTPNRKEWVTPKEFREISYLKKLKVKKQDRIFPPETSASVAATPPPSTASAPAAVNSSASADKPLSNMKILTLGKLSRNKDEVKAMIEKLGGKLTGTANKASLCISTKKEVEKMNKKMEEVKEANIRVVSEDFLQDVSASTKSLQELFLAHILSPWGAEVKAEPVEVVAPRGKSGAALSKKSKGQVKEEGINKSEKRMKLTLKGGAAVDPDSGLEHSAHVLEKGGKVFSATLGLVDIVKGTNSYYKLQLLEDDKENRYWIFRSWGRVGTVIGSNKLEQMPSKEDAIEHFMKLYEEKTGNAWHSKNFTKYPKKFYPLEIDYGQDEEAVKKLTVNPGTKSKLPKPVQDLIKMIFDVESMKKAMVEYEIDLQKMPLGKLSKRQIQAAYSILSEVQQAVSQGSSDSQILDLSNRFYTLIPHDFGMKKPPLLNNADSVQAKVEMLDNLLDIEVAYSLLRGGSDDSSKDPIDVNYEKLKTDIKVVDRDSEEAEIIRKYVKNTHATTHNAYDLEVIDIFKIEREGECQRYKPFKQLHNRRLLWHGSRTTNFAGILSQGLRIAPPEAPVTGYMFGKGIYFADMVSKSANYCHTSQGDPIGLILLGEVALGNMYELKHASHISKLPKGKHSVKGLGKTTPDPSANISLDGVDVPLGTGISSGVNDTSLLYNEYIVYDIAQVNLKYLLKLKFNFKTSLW

What is called IC50 is the point on the concentration scale where inhibition reaches its midpoint. With `O=c1c(O)c(-c2ccc(O)c(-c3c(O)cc(O)c4c(=O)cc(-c5ccc(OS(=O)(=O)O)cc5)oc34)c2)oc2cc(OS(=O)(=O)O)cc(O)c12`, in experiment [1] (read-out: IC50), the 50% inhibitory concentration (IC50) amounted to 240 nM.

Regarding `O=c1cc(-c2ccc(O)c(-c3c(O)cc(O)c4c(=O)cc(-c5ccc(OS(=O)(=O)O)cc5)oc34)c2)oc2cc(O)cc(O)c12`, the result in the experiment with A549 [2], in the experiment on A549 [3] and with A549 [4] was Active. The values for the IC50 in experiment [1] and in experiment [1] (read-out: IC50) were 0.0804 µg/mL and 170 nM, respectively.

As to `O=c1cc(-c2ccc(O)c(-c3c(O)cc(O)c4c(=O)cc(-c5ccc(O)cc5)oc34)c2)oc2cc(O)cc(O)c12` [AMENTOFLAVONE], the results for the IC50 in experiment [1] and in experiment [1] (read-out: IC50) were 0.1398 µg/mL and 120 nM, respectively. The outcome in the experiment on A549 [5], with A549 [6] and in the experiment on A549 [7] was Active.

Take `O=c1c(O)c(-c2ccc(O)c(-c3c(O)cc(O)c4c(=O)cc(-c5ccc(O)cc5)oc34)c2)oc2cc(OS(=O)(=O)O)cc(O)c12`: the figures for the concentration for half-maximal inhibition (IC50) in experiment [1] and in experiment [1] (read-out: IC50) were 0.1158 µg/mL and 510 nM, respectively.
